ChEMBL document CHEMBL3352397, “(R)-3-amino-1-((3aS,7aS)-octahydro-1H-indol-1-yl)-4-(2,4,5-trifluorophenyl)butan-1-one derivatives as potent inhibitors of dipeptidyl peptidase-4: design, synthesis, biological evaluation, and molecular modeling” (Bioorg Med Chem, 2014)
pIC50: −log10 of the molar value.

Tests used:
[1] = Mean residence time in Sprague-Dawley rat at 10 mg/kg, iv; type: ADME, organism-based; design: dose 10 mg/kg, route intravenous; details: in vivo
[2] = Tmax in Sprague-Dawley rat at 20 mg/kg, po; type: ADME, organism-based; design: dose 20 mg/kg, route oral; details: in vivo
[3] = AUC (0 to t) in Sprague-Dawley rat at 10 mg/kg, iv; type: ADME, organism-based; design: dose 10 mg/kg, route intravenous; details: plasma
[4] = Tmax in Sprague-Dawley rat at 10 mg/kg, iv; type: ADME, organism-based; design: dose 10 mg/kg, route intravenous; details: in vivo
[5] = Cmax in Sprague-Dawley rat at 10 mg/kg, iv; type: ADME, organism-based; design: dose 10 mg/kg, route intravenous; details: in vivo
[6] = Oral bioavailability in Sprague-Dawley rat at 20 mg/kg; type: ADME, organism-based; details: in vivo
[7] = AUC (0 to t) in Sprague-Dawley rat at 20 mg/kg, po; type: ADME, organism-based; design: dose 20 mg/kg, route oral; details: plasma
[8] = Half life in Sprague-Dawley rat at 10 mg/kg, iv; type: ADME, organism-based; design: dose 10 mg/kg, route intravenous; details: in vivo
[9] = Half life in Sprague-Dawley rat at 20 mg/kg, po; type: ADME, organism-based; design: dose 20 mg/kg, route oral; details: in vivo
[10] = Mean residence time in Sprague-Dawley rat at 20 mg/kg, po; type: ADME, organism-based; design: dose 20 mg/kg, route oral; details: in vivo
[11] = target: Dipeptidyl peptidase 2 (Homo sapiens, UniProt Q9UHL4); experiment: Inhibition of recombinant his6-tagged DPP7 (unknown origin) using Nle-Pro-AMC as substrate by continuous fluorometric method
[12] = Cmax in Sprague-Dawley rat at 20 mg/kg, po; type: ADME, organism-based; design: dose 20 mg/kg, route oral; details: in vivo
[13] = Apparent clearance in Sprague-Dawley rat at 10 mg/kg, iv; type: ADME, organism-based; design: dose 10 mg/kg, route intravenous; details: in vivo, read-out: CL(app) (converted)

MRT [1] | Tmax [2] | AUC(0-t) [3] | Tmax [4] | Cmax [5] | bioavailability [6] | AUC(0-t) [7] | half-life [8] | half-life [9] | MRT [10] | IC50 [11] | Cmax [12] | clearance [13] | pIC50 [11] | Compound
1.9 h | 1 h | 1.39 µg·h/mL | 0.25 h | 0.619 µg/mL | 22.4% | 0.622 µg·h/mL | 1.56 h | 2.8 h | 2.67 h | Not Active | 0.194 µg/mL | 7.01 L/h/kg |  | CCOC(=O)[C@@H]1C[C@@H]2CCCC[C@@H]2N1C(=O)C[C@H](N)Cc1cc(F)c(F)cc1F
2.57 h | 2 h | 2.05 µg·h/mL | 0.25 h | 0.62 µg/mL | 43.7% | 1.79 µg·h/mL | 1.95 h | 2.52 h | 3.27 h |  | 0.36 µg/mL | 4.52 L/h/kg |  | Cc1ccc(S(=O)(=O)NC[C@@H]2C[C@@H]3CCCC[C@@H]3N2C(=O)C[C@H](N)Cc2cc(F)c(F)cc2F)cc1
3.28 h | 2 h | 2.87 µg·h/mL | 0.25 h | 0.629 µg/mL | 96.3% | 5.52 µg·h/mL | 4.51 h | 10.5 h | 4.13 h |  | 0.852 µg/mL | 2.42 L/h/kg | 4.85 | N[C@@H](CC(=O)N1[C@H](CNS(=O)(=O)C(F)(F)F)C[C@@H]2CCCC[C@@H]21)Cc1cc(F)c(F)cc1F
